According to US6488912B1, “Treatment of dentoalveolar infections with taurolidine and/or taurultam” (Ed. Geistlich Soehne AG fuer Chemische Industrie, priority 1992, dated 2002):

Legend:
Pericoronitis = test: Controlled clinical trial, total treatment time to complete remission: pericoronitis; format: in vivo, patients; conditions: TAUR: T-Irrigation fluid 3% + T-Dental emulsion 3%, STANDARD: NaCl 0.9% + AUREOMYCIN Ointment 3%, n=100 per group
Procedure: (§1) The in-vivo tests were carried out at the Clinic for Maxillofacial Surgery, Munich University between 1989 and 1992. In accordance with modern biometric principles the study was planned as a controlled clinical trial, i.e. it was conducted according to a prospective, protective, randomized, monocentre and simple blind design.
(§2) The test substances investigated were 4 different galenic presentation forms of the active component taurolidine and 4 conventional finished pharmaceuticals.
(§3) For each of the 6 indications investigated an exact therapeutic procedure was fixed. The surgical management was carried out according to the individual situation in the usual manner. Tables 1 and 2 show the antimicrobial therapy regimens defined for patient groups A (Taurolidine group) and B (Standard group). It is evident, that the only difference, with the same quantity of substance applied in the same form, was the choice of preparation.
(§4) For critical examination of the effectiveness of the different pharmaceuticals concerning therapeutic success and total treatment time clinical parameters reflecting the progress of recovery were controlled and documented at every session. The following 6 target variables were defined and evaluated by a uniform scale (0=none to 4=very strong):
(§5) The score-level 5 (total) was given at the moment of complete remission and describes consequently the final point of treatment.
(§6) 200 cases were treated in each indication group, the total number amounted to 1,200. The distribution into the two therapy regimens was realised by random sampling. Statistical evaluations were made by means of testing methods described in customary literature.

Gangrene = test: Controlled clinical trial, total treatment time to complete remission: gangrene; format: in vivo, patients; conditions: TAUR: T-Irrigation fluid 3% + T-Liquid gel 3%, STANDARD: H2O2 3% + CHKM Solution, n=100 per group
Procedure: as §1, §2, §3, §4, §5, §6

Abscess = test: Controlled clinical trial, total treatment time to complete remission: abscess; format: in vivo, patients; conditions: TAUR: T-Irrigation fluid 3% + T-Dental emulsion 3%, STANDARD: NaCl 0.9% + AUREOMYCIN Ointment 3%, n=100 per group
Procedure: as §1, §2, §3, §4, §5, §6

Parodontitis marginalis = test: Controlled clinical trial, total treatment time to complete remission: parodontitis; format: in vivo, patients; conditions: TAUR: T-Liquid gel 3% + T-Dental emulsion 3%, STANDARD: DONTISOLON Ointment M, n=100 per group
Procedure: as §1, §2, §3, §4, §5, §6

dentoalveolar infections = test: Controlled clinical trial, taurolidine vs conventional therapy, all 6 indications pooled: target variables; format: in vivo, patients
Procedure: as §1
The following 6 indications examined were selected specifically on the basis of their incidence and clinical relevance.
as §2, §3, §4, §5, §6

[1] = tested on: Alveolitis sicca dolorose; test: Controlled clinical trial, total treatment time to complete remission: alveolitis; format: in vivo, patients; conditions: TAUR: T-Irrigation fluid 3% + T-Dental emulsion 3%, STANDARD: NaCl 0.9% + AUREOMYCIN Ointment 3%, n=100 per group
Procedure: as §1, §2, §3, §4, §5, §6

Infection Prophylaxis = test: Controlled clinical trial, total treatment time to complete remission: infection prophylaxis; format: in vivo, patients; conditions: TAUR: T-Dental gel 2%, STANDARD: CHLORHEXAMED Dental gel 1%, n=100 per group
Procedure: as §1, §2, §3, §4, §5, §6

[2] = tested on: human desmodontal fibroblasts; conditions: cited from earlier work
[3] = background statement; cited from earlier work
[4] = all 6 indications, n=600 per group, maximum
[5] = all 6 indications, n=600 per group, mean
[6] = all 6 indications, n=600 per group, minimum

O=S1(=O)CCN(CN2CCS(=O)(=O)NC2)CN1 [TAUR, taurolidine]
PERICORONITIS, total treatment TIME (remission), Maximum (Pericoronitis; maximum): 12 days | PERICORONITIS, total treatment TIME (remission), Mean (Pericoronitis; mean): 5.1 days | PERICORONITIS, total treatment TIME (remission), Minimum (Pericoronitis; minimum): 2 days | GANGRENE, total treatment TIME (remission), Maximum (Gangrene; maximum): 10 days | GANGRENE, total treatment TIME (remission), Mean (Gangrene; mean): 5.0 days | GANGRENE, total treatment TIME (remission), Minimum (Gangrene; minimum): 2 days | ABSCESS, total treatment TIME (remission), Maximum (Abscess; maximum): 13 days | ABSCESS, total treatment TIME (remission), Mean (Abscess; mean): 5.5 days | ABSCESS, total treatment TIME (remission), Minimum (Abscess; minimum): 2 days | PARODONTITIS, total treatment TIME (remission), Maximum (Parodontitis marginalis; maximum): 14 days | PARODONTITIS, total treatment TIME (remission), Mean (Parodontitis marginalis; mean): 5.1 days | PARODONTITIS, total treatment TIME (remission), Minimum (Parodontitis marginalis; minimum): 2 days | PAIN TIME, Maximum (dentoalveolar infections; [4]): 14 days | PERCUSSION TIME, Maximum (dentoalveolar infections; [4]): 13 days | PRESSURE PAIN TIME, Maximum (dentoalveolar infections; [4]): 15 days | SECRETION TIME, Maximum (dentoalveolar infections; [4]): 15 days | SWELLING TIME, Maximum (dentoalveolar infections; [4]): 14 days | PERCUSSION TIME, Mean (dentoalveolar infections; [5]): 1.9 days | PRESSURE PAIN TIME, Mean (dentoalveolar infections; [5]): 5.3 days | SECRETION TIME, Mean (dentoalveolar infections; [5]): 3.9 days | SWELLING TIME, Mean (dentoalveolar infections; [5]): 4.5 days | PAIN TIME, Minimum (dentoalveolar infections; [6]): 1 days | PERCUSSION TIME, Minimum (dentoalveolar infections; [6]): 1 days | PRESSURE PAIN TIME, Minimum (dentoalveolar infections; [6]): 1 days | SECRETION TIME, Minimum (dentoalveolar infections; [6]): 1 days | SWELLING TIME, Minimum (dentoalveolar infections; [6]): 1 days | effectiveness against standard therapy (more rapid recovery) (dentoalveolar infections; all 6 indications, p<0.0001): superior effectiveness | side effects after application (dentoalveolar infections; during the acute period of inflammation): slight pain for some minutes after application | optional antibiotics and analgetics required/administered (dentoalveolar infections; taurolidine group vs standard group, p=0.007 resp. p=0.01): significantly less | pain-free earlier than under conventional treatment (average) (dentoalveolar infections; taurolidine vs conventional treatment): 2 days | ALVEOLITIS, total treatment TIME (remission), Maximum ([1]; maximum): 15 days | ALVEOLITIS, total treatment TIME (remission), Mean ([1]; mean): 5.6 days | ALVEOLITIS, total treatment TIME (remission), Minimum ([1]; minimum): 3 days | INFECT. PROPHYLAXIS, total treatment TIME (remission), Maximum (Infection Prophylaxis; maximum): 13 days | INFECT. PROPHYLAXIS, total treatment TIME (remission), Mean (Infection Prophylaxis; mean): 7.5 days | INFECT. PROPHYLAXIS, total treatment TIME (remission), Minimum (Infection Prophylaxis; minimum): 3 days

[H]/N=C(\N/C(=N/[H])NCCCCCCNC(=N)NC(=N)Nc1ccc(Cl)cc1)Nc1ccc(Cl)cc1 [Chlorhexidine]
cell damage [2]: accelerated ageing and a cytopathological effect

Neomycin
allergy rate [3]: 15-30%
